Measured values: patent publication US11352391B2, “Compositions for inducing urinary voiding and defecation” (Dignify Therapeutics, LLC, priority 2017, dated 2022)
Where a SMILES comes first, the peptide text is derived from it.

Legend:
[1] = tested on: anesthetized acute spinal cord injured (aSCI) rat; test: Isovolumetric bladder pressure in anesthetized acute spinal cord injured (aSCI) rats; type: in vivo
Method: (§1) Methods: Studies were conducted in acutely spinal transected rats under isovolumetric bladder pressure recording conditions. Acute spinal cord injury (aSCI) is an in vivo model of isolated bladder smooth muscle contraction without reinforcement from micturition reflexes (i.e., myogenic, not neurogenic, contraction). Thus, it can be viewed as a model of severe bladder underactivity.
Animal preparation: In vivo studies were performed in anesthetized, acutely spinalized (T8-10 level) rats. Rats were anesthetized with urethane (1.2-1.4 g/kg subcutaneous injection). Surgical procedures were then performed with the addition of isoflurane anesthesia (0.05-1.5% in 02) as needed.
For aSCI, the skin and muscle on the dorsal side at the level of the lower thoracic vertebrae were incised and the spinal cord was carefully exposed by a laminectomy and transected at the T8-T10 spinal level. Gelfoam was placed at the incision site and the muscle and skin overlying the vertebrae were closed with wound clips. The spinal cord was cut at least 60 min before starting the experimental protocol. […]
(§2) Data analysis: Data were examined qualitatively and quantitatively. The mean, standard deviation and standard error of the mean were calculated using MICROSOFT EXCEL.

[2] = tested on: anesthetized acute spinal cord injured (aSCI) rat; test: Colorectal (bowel) pressure manometry in anesthetized aSCI rats; type: in vivo; conditions: doses >10 μg/kg SC
Method: as §1
Animal preparation: In vivo studies were performed in anesthetized, acutely spinalized (T8-10 level) rats. Rats were anesthetized with urethane (1.2-1.4 g/kg subcutaneous injection). Surgical procedures were then performed with the addition of isoflurane anesthesia (0.05-1.5% in 02) as needed. […]
Bowel Contractility: Colorectal pressure manometry was performed via a latex balloon catheter (length 3-5 cm) inserted (˜4 cm) into the distal rectal/colon region. […] This allowed drug induced changes in colorectal pressure to be monitored. Parameters measured include peak colorectal pressure response, duration of time above baseline activity (in the 1st 5 min after drug administration), area under the curve (measured during the 1st 5 min after drug administration) and the number of contractile events after vehicle and drug administration. […]
as §2

[3] = target: recombinant hNK1R expressed in CHO cells (Homo sapiens, UniProt P25103); test: Intracellular calcium mobilization (FLIPR) in CHO-hNK1 cells; type: cell-based; conditions: calcium mobilization, CHO-hNK1 cells; read-out: hNK1 EC50
Method: (§3) CHO-hNK1 and CHO-hNK2 cells were seeded into black walled clear-bottom 384-well plates) at a density of 10,000 and 15,000 cells per well in 50 μL culture media, respectively, and grown overnight at 37° C. in a humidified CO2-incubator. Cells were washed in washing buffer using the EMBLA 384 instrument, leaving 20 μL of buffer per well after the final aspiration. Cells were then incubated at 37° C. with the cytoplasmic Ca2+ indicator Fluo-4 AM (final concentration 1 μM) in assay buffer (20 mM HEPES, 145 mM NaCl, 5 mM KCl, 5.5 mM glucose, 1 mM MgCl2 and 2 mM CaCl2, pH 7.4, 0.05% Pluronic F-127 and 0.1% BSA) containing 2.5 mM probenecid for […] (cell loading). Cells were then washed 3 times in washing buffer (20 mM HEPES, 145 mM NaCl, 5 mM KCl, 5.5 mM glucose, 1 mM MgCl2 and 2 mM CaCl2, pH 7.4 and 2.5 mM probenecid) using the EMBLA 384 instrument, leaving 30 μL of buffer in each well after the last wash. Loaded cell plates were transferred to the FLIPR machine and calcium responses were monitored as described below. A dual read-out FLIPR protocol was used, allowing for characterization of both agonist and antagonist profiles. For quality control, in each compound plate the signal was monitored by evaluating the responses to the reference standards (NKA and Substance P).
(§4) Concentration response curves of compounds were run in duplicate on two different occasions from the same stock solutions. Test solutions were prepared from 10 mM stock solutions in DMSO and 1 μL of each solution was stamped into V-bottom assay plates containing 49 μL assay buffer. The final concentration of DMSO was 0.5% in each well.

[4] = target: T1, recombinant hNK2R expressed in CHO cells (Homo sapiens, UniProt P21452); test: Intracellular calcium mobilization (FLIPR) in CHO-hNK2 cells; type: cell-based
T1 sequence (P21452 1-398): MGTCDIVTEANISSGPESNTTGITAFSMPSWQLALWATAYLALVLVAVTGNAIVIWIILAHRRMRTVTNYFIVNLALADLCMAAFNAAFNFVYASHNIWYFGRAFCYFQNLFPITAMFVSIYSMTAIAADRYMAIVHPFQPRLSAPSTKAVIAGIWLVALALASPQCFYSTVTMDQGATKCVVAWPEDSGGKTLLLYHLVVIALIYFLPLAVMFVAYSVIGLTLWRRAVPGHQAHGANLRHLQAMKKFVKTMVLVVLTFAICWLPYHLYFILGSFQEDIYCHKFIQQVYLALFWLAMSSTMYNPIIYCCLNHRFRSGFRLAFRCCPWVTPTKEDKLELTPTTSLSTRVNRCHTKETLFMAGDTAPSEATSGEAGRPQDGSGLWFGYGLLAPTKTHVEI
Method: as §3, §4

[5] = tested on: anesthetized dog; test: Urine leakage from the bladder in anesthetized dog; type: in vivo; conditions: IV 3 μg/kg and SC 30 μg/kg, data not shown
Method: Animal preparation: Naïve beagle dogs were fasted for 12-24 hours and received a warm water enema the night prior to, and the morning of, the experiment to clear the rectum and lower colon of feces. The day of the experiment, a 20 gauge IV catheter (Terumo Surflo) was placed in the cephalic vein for anesthetic induction (propofol, 10 mg/kg; IV) and delivery of IV fluids (5-10 ml/kg/hr) and compounds. The sedated dog was intubated with a 5-6 Fr tracheal tube and was maintained on 2-3% isoflurane via a ventilator (15-25 breaths/min; tidal volume […]) for the remainder of the experiment.

recombinant hNK1R expressed in CHO cells, sequence (P25103 whole entry): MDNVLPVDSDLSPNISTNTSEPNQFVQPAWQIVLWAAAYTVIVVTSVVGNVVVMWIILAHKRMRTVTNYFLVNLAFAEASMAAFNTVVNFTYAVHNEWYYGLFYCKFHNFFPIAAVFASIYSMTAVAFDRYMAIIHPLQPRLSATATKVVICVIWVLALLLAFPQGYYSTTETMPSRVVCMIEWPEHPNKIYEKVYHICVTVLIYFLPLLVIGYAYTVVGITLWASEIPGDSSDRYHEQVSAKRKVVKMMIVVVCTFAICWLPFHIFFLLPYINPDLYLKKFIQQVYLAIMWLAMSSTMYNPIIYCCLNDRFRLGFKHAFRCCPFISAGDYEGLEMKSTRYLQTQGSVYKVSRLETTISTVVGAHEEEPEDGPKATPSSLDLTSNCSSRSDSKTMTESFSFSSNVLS

CCCC[C@H](NC(=O)[C@H](CC(C)C)N(C)C(=O)CNC(=O)[C@@H](NC(=O)[C@H](Cc1ccccc1)NC(=O)[C@H](CCCNC(=N)N)NC(=O)[C@@H](N)CC(=O)O)C(C)C)C(N)=O [Compound B, Asp-Arg-Phe-Val-Gly-(NMe-Leu)-Nle-NH2] (HELM PEPTIDE1{D.R.F.V.G.[meL].[Nle].[am]}$$$$V2.0; N-terminus assumed)
onset of increase in bladder contraction pressure ([1]; SC, anesthetized aSCI rat): < 2 min
bladder activity (peak bladder pressure) ([1]; doses >10 μg/kg SC, aSCI rat): measurable increases in bladder activity
bowel activity (bowel pressure AUC, first 5 min) [2]: measurable increases in bowel activity
EC50 [3]: 5.84 nM
EC50 ([4]; calcium mobilization, CHO-hNK2 cells, read-out: hNK2 EC50): 0.08 nM
hNK2 selectivity ratio ([4]; ratio of EC50s hNK1R/hNK2R): 70
urine leakage / induction of voiding [5]: leakage of urine from the bladder
